Results published in paper PMC3091868, “A Novel Structural Framework for α1A/D-Adrenoceptor Selective Antagonists Identified Using Subtype Selective Pharmacophores” (PLoS ONE, 2011).
Read-outs that look alike come from different tables or passages of the source.

Experiments:
α1A-AR [1] = biological target: T1, α1A-AR (Rattus norvegicus, UniProt P43140); assay: [3H]Prazosin competition/saturation binding on COS-1 membranes expressing α1A-AR; set-up: species or system rodent; settings: [3H]Prazosin 200 pM, COS-1 membranes
T1 construct: expressed in transfected cells; host or cells: COS-1
T1 sequence (P43140 1-466): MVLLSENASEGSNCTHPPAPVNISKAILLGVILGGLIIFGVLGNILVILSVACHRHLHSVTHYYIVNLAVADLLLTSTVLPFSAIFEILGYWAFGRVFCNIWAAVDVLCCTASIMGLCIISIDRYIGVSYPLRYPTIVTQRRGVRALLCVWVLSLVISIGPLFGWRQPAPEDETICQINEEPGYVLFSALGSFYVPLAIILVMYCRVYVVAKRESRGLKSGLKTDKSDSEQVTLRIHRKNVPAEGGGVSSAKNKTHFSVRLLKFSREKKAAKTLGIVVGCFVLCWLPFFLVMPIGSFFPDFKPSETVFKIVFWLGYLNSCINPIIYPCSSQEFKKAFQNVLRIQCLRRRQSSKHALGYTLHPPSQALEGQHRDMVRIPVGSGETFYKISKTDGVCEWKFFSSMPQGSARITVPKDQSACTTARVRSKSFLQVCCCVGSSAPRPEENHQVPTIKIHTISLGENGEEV
Procedure: (§1) COS-1 cells (American Type Culture Collection, Manassas, VA) were cultured in Dulbecco's modified Eagle's medium (DMEM) supplemented with 10% (v/v) heat inactivated fetal bovine serum (FBS), 100 µg ml^−1 penicillin and 100 µg ml^−1 streptomycin. Cells were maintained and passaged upon reaching confluence by standard cell culture techniques. pMT4 plasmids containing rodent α1-AR (a kind gift from Prof R Graham, Victor Chang Cardiac Research Institute, Australia) were used to transfect cells. Transient expression in COS-1 cells was accomplished using two techniques; the diethylaminoethane-dextran (DEAE-dextran) and Lipofectamine 2000 (Invitrogen, Carlsbad, CA, USA) methods. Briefly, the DEAE-dextran method involved washing of cells with phosphate buffered saline (PBS), followed by the addition of the DNA mixture (12–25 µg/4×10^6 cells) in DEAE-dextran (10 mg ml^−1) to cells at 60–80% confluency. Following a 3 h incubation, a PBS wash with 10% DMSO was used to shock the cells. Cells were harvested 72 h post transfection. For the Lipofectamine 2000 method, cells were incubated for 12 h with Opti-MEM (GIBCO BRL, Gaithersburg, MD, USA) containing Lipofectamine 2000.
(§2) Membranes were prepared as described previously. Briefly, COS-1 cells were transiently transfected using the DEAE-dextran method. […] Protein concentration was determined using Bradford reagent (Sigma, St Louis, MO, USA).
(§3) For all binding experiments, the reaction mixture was incubated for 1 h at room temperature, stopped by the addition of 4°C PBS and filtered with a Brandel cell harvester (Gaithersburg, MD, USA) on GF/C filters. Nonspecific binding was defined as binding in the presence of 100 µM phentolamine hydrochloride.
(§4) Nonlinear regression analysis of saturation and competition binding assay data was performed using the […] curve fitting program GraphPad Prism (San Diego, CA, USA). […] The competitive binding data for each ligand was tested for both one and two -site binding.

α1B-AR = biological target: T2, α1B-AR (Mesocricetus auratus, UniProt P18841); assay: [3H]Prazosin competition/saturation binding on COS-1 membranes expressing α1B-AR; set-up: species or system rodent
T2 construct: expressed in transfected cells; host or cells: COS-1
T2 sequence (P18841 1-515): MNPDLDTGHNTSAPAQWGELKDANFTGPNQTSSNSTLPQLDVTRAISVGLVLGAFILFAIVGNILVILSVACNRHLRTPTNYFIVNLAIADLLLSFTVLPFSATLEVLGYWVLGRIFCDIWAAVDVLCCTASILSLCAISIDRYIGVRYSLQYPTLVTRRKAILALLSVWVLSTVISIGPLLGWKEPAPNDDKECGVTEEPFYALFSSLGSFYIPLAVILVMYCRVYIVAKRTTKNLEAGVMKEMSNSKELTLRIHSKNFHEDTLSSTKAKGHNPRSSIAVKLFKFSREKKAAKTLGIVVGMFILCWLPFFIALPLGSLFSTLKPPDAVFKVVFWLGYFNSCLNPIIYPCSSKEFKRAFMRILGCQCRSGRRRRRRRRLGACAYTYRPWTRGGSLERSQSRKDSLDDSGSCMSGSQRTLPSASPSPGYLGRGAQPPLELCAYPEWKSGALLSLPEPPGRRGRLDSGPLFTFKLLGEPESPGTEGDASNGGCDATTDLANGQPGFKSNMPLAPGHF
Procedure: as §1, §2, §3, §4

α1D-AR = biological target: T3, α1D-AR (Rattus norvegicus, UniProt P23944); assay: [3H]Prazosin competition/saturation binding on COS-1 membranes expressing α1D-AR; set-up: species or system rodent; settings: [3H]Prazosin 200 pM
T3 construct: expressed in transfected cells; host or cells: COS-1
T3 sequence (P23944 1-561): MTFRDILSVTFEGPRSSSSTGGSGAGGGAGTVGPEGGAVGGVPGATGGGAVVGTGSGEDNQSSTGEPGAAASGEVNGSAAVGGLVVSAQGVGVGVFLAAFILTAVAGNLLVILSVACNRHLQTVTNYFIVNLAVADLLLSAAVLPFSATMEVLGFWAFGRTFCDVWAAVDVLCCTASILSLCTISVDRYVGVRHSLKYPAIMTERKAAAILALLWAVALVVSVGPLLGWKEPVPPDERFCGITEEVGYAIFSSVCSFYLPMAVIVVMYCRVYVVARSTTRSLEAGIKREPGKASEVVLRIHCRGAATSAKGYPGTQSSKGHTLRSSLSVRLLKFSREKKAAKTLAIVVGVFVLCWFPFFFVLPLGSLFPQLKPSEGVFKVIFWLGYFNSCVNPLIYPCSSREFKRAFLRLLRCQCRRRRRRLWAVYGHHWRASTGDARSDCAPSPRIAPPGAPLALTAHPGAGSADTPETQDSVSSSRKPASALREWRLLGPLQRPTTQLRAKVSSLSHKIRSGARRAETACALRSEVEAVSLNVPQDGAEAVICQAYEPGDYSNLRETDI
Procedure: as §1, §2, §3, §4

α1A-AR [2] = biological target: T1, α1A-AR; assay: Phosphatidylinositol hydrolysis (IP accumulation) assay in COS-1 cells expressing α1A-AR; format: cell-based, rodent; settings: 20 min compound, then 10 µM (-)-norepinephrine 30 min, COS-1 cells; read-out: pIC50, inhibition of norepinephrine induced IP accumulation at α1A-AR (converted)
Procedure: as §1
Accumulation of [^3H] inositol phosphates (IPs) was determined as described previously. Briefly, COS-1 cells were transiently transfected with α1A, α1B and α1D - AR pMT4 plasmids using the Lipofectamine method. 24 h after transfection, cells were seeded into 96 well plates and labelled overnight with 20 µCi ml^−1 [^3H]myo-inositol in inositol free DMEM supplemented with 5% charcoal stripped FBS. Cells were washed twice with inositol free DMEM, and incubated in inositol free DMEM for 2 h at 37°C. Cells were treated for 20 minutes with LiCl (20 mM) and propanolol (20 µM) in the presence or absence of tested compounds. Agonists were then added for 30 min, and the reaction was terminated by addition of 0.4 M formic acid. Cells were lysed by freeze thawing twice and were applied to AG 1-X8 columns. Total IPs were eluted with 1 M ammonium formate in 0.1 M formic acid. 200 µL of eluted sample was diluted with 1 mL reverse osmosis water and 5 mL Ultimaflow scintillation fluid (Perkin Elmer), and were counted in a liquid scintillation counter.
Compounds were administered alone (100 µM) or prior to the addition of 10 µM […], to screen for agonist or antagonist activity respectively.
Figure 2 Inhibition of norepinephrine induced inositol phosphate (IP) accumulation at α1A- AR. α1A-AR transfected cells labelled overnight with [^3H]- myo-inositol were treated with indicated concentrations (300 µM – 0.1 µM) of test compounds, 1 (▪), 2 (▵), and 11 (○), for 20 min. This was followed by a 30 min. stimulation with 10 µM (-)- norepinephrine, following which total IP accumulation was determined. Data was normalized against basal COS-1 cell IP production and expressed as a percentage of the (-)-norepinephrine-stimulated maximal IP response of that receptor subtype. The data represented the mean ± SE of a single experiment (n = 4–5), performed in triplicate.
Figure 3 Inositol phosphate (IP) accumulation in the presence of norepinephrine and compound 8 at the α1A- adrenoceptor (AR). α1A-AR transfected cells were labelled with [^3H]- myo-inositol. Following a 20 min. treatment with lithium chloride (20 mM) and propanolol (20 µM) the cells were stimulated with the indicated concentrations (300 µM − 0.1 µM) of (-) norepinephrine (•) or compound 8 (▪) for 30 min. Total inositol phosphate (IP) accumulation was determined as described under “Materials and Methods”. Data was normalized against basal COS-1 cell IP production and expressed as a percentage of the (-)-norepinephrine-stimulated maximal IP response. The data represents the mean ± SE of three separate experiments (n = 3), performed in duplicate or triplicate.

[3] = antilog of mean pKi, Cheng-Prusoff, read-out: Ki α1A-AR
[4] = pKi = -Log Ki, read-out: pKi α1A-AR (converted)
[5] = [3H]Prazosin 200 pM, COS-1 membranes, antilog of mean pKi, Cheng-Prusoff, read-out: Ki α1B-AR
[6] = [3H]Prazosin 200 pM, COS-1 membranes, pKi = -Log Ki, read-out: pKi α1B-AR (converted)
[7] = antilog of mean pKi, Cheng-Prusoff, read-out: Ki α1D-AR
[8] = pKi = -Log Ki, read-out: pKi α1D-AR (converted)

Ki (α1A-AR [1]; [3]) [µM]	Ki (α1A-AR [1]; [4]) [µM]	Ki (α1B-AR; [5]) [µM]	Ki (α1B-AR; [6]) [µM]	Ki (α1D-AR; [7]) [µM]	Ki (α1D-AR; [8]) [µM]	SMILES	Ki (α1A-AR [1]; Ki α1A-AR, antilog of mean pKi, Cheng-Prusoff) [µM]	Ki (α1B-AR) [µM]	Ki (α1D-AR; Ki α1D-AR, antilog of mean pKi, Cheng-Prusoff) [µM]	IC50 (α1A-AR [2]) [µM]
> 100	> 100	> 100	> 100	> 100	> 100	Cc1cccc(CN2CCCN(C(=S)NCCN3CCOCC3)CC2)n1 [Compound 5]	–	–	–	–
> 100	> 100	> 100	> 100	> 100	> 100	Cc1cc(CN2CCCN(C(=S)Nc3ccccc3C(F)(F)F)CC2)no1 [Compound 4]	–	–	–	–

The remaining lines, values behind:

SMILES	Ki (α1A-AR [1]; [3]) [µM]	Ki (α1A-AR [1]; [4]) [µM]	Ki (α1B-AR; [5]) [µM]	Ki (α1B-AR; [6]) [µM]	Ki (α1D-AR; [7]) [µM]	Ki (α1D-AR; [8]) [µM]	Ki (α1A-AR [1]; Ki α1A-AR, antilog of mean pKi, Cheng-Prusoff) [µM]	Ki (α1B-AR) [µM]	Ki (α1D-AR; Ki α1D-AR, antilog of mean pKi, Cheng-Prusoff) [µM]	IC50 (α1A-AR [2]) [µM]
CCCCC(O)CN1CCC(Cc2ccccc2)CC1 (centres unmarked) [Compound 6]	5.22	4.9	17	13.5	5.9	5.5	–	–	–	–
Cc1ccc(C)c(N2CCN(CC(O)COC(C)(C)C)CC2)c1 (centres unmarked) [Compound 1]	1.17	–	1.42	–	0.83	0.794	< 2	< 2	< 2	25.1
CN(C)c1ccc(CN2CCCN(Cc3ccc(N(C)C)cc3)C2c2cc(Cl)ccc2O)cc1 [Compound 9]	24.5	23.4	> 100	> 100	36.1	24.5	–	–	–	–
CCCCN(Cc1ccc(N(CC)CC)cc1)CC(O)c1ccc(Cl)cc1 (centres unmarked) [Compound 12]	45.5	30.9	> 100	> 100	62.4	32.4	–	–	–	–
